Experimental findings from patent US20230013602A1, “NOVEL IMIDAZOPYRAZINE DERIVATIVES” (Hoffmann-La Roche Inc., priority 2018, published 2023) are described below.

Assay [1] has as its system Acinetobacter baumannii ATCC17961. Nature of the assay: Antimicrobial susceptibility testing, 90% growth inhibitory concentration (IC90) determination. The format is cell-based. Conditions: 90% growth inhibitory concentration, Acinetobacter baumannii ATCC17961, Iso-Sensitest broth, OD 600 nm over 16 h; read-out: ATCC17961 IC90. The method, then: (§1) The in vitro antimicrobial activity of the compounds was determined according to the following procedure:
(§2) The assay used a 10-points Iso-Sensitest broth medium to measure quantitatively the in vitro activity of the compounds against Acinetobacter baumannii ATCC 17978 and Acinetobacter baumannii ATCC17961.
(§3) Stock compounds in DMSO were serially twofold diluted (e.g. range from 50 to 0.097 μM final concentration) in 384 wells microtiter plates and inoculated with 49 μl the bacterial suspension in Iso-Sensitest medium to have a final cell concentration of ˜5×10^(5) CFU/ml in a final volume/well of 50 ul/well. Microtiter plates were incubated at 35+2° C.
(§4) Bacterial cell growth was determined with the measurement of optical density at X=600 nm each 20 minutes over a time course of 16 h. Growth inhibition was calculated during the logarithmic growth of the bacterial cells with determination of the concentration inhibiting 50% (IC50) and 90% (IC90) of the growth.
(§5) Table 1 provides the 90% growth inhibitory concentrations (IC90) in micromoles per liter of the compounds of present invention obtained against the strain Acinetobacter baumannii ATCC17978 and Acinetobacter baumannii ATCC17961.

Assay [2] has as its system Acinetobacter baumannii ATCC 17978. The assay is described as above. The assay is classed as cell-based. Conditions: Acinetobacter baumannii ATCC17978, Iso-Sensitest broth, OD 600 nm over 16 h. As to the method: as §1, §2, §3, §4, §5

Structures can show the parent of a compound that is named as a salt.

In general, IC90 refers to the concentration at which the effect reaches the 90% level. Take `CCc1cc(Nc2nccn3c(-c4ccc(OC)c(F)c4F)cnc23)ccc1C(=O)N[C@@H]1CCCC[C@@H]1N` (racemic) [Example 8, rac-N-((1R,2S)-2-aminocyclohexyl)-4-((3-(2,3-difluoro-4-methoxyphenyl)imidazo[1,2-a]pyrazin-8-yl)amino)-2-ethylbenzamide]: the figures for the IC90 in assay [1] and in assay [2] were 852 nM and 850 nM, respectively. Regarding `COc1ccc(-c2cnc3c(Nc4ccc(C(=O)NC5CCC(NC(=O)[C@@H]6C[C@@H](O)CN6)C5)c(C)c4)nccn23)c(F)c1F` (mixture of isomers) [Example 36, rac-(2R,4S)-N-[3-[[4-[[3-(2,3-difluoro-4-methoxyphenyl)imidazo[1,2-a]pyrazin-8-yl]amino]-2-methylbenzoyl]amino]cyclopentyl]-4-hydroxypyrrolidine-2-carboxamide], the IC90 in assay [1] and in assay [2] was 72 nM throughout.

Take `CCc1cc(Nc2nccn3c(-c4ccc(OC)c(F)c4F)cnc23)ccc1C(=O)NC1(CN)CC1` [Example 4, N-(1-(aminomethyl)cyclopropyl)-4-((3-(2,3-difluoro-4-methoxyphenyl)imidazo[1,2-a]pyrazin-8-yl)amino)-2-ethylbenzamide hydrochloride]: the IC90 is 274 nM in assay [1] and 320 nM in assay [2]. For `CCc1cc(Nc2nccn3c(-c4ccc(OC)c(F)c4F)cnc23)ccc1C(=O)N[C@H]1CC[C@@H](NC(=O)[C@@H](N)CCCNC(=N)N)CC1` [Example 5, N-[4-[[(2S)-2-amino-5-guanidino-pentanoyl]amino]cyclo-hexyl]-4-[[3-(2,3-difluoro-4-methoxy-phenyl)imidazo[1,2-a]pyrazin-8-yl]amino]-2-ethyl-benzamide trifluoroacetate] the same measures were 176 nM and 180 nM.

For `CCc1cc(Nc2nccn3c(-c4ccc(OC)c(F)c4F)cnc23)ccc1C(=O)N[C@H]1CC[C@@H](N)CC1` [Example 6, Cis-N-(4-aminocyclohexyl)-4-[[3-(2,3-difluoro-4-methoxy-phenyl)imidazo[1,2-a]pyrazin-8-yl]amino]-2-ethyl-benzamide], the IC90 in assay [1] and in assay [2] was 88 nM throughout. Take `CCc1cc(Nc2nccn3c(-c4ccc(OC)c(F)c4F)cnc23)ccc1C(=O)N[C@H]1CCC[C@@H]1N` [Example 9, N-((1S,2S)-2-aminocyclopentyl)-4-((3-(2,3-difluoro-4-methoxyphenyl)imidazo[1,2-a]pyrazin-8-yl)amino)-2-ethylbenzamide]: the values for the IC90 in assay [1] and in assay [2] were 297 nM and 300 nM, respectively. The corresponding values for `CCc1cc(Nc2nccn3c(-c4ccc(OC)c(F)c4F)cnc23)ccc1C(=O)N[C@H]1C[C@@H](N)C1` [Example 11, Cis N-(3-aminocyclobutyl)-4-[[3-(2,3-difluoro-4-methoxy-phenyl)imidazo[1,2-a]pyrazin-8-yl]amino]-2-ethyl-benzamide] are 84 nM and 84 nM.

Consider `CCc1cc(Nc2nccn3c(-c4ccc(OC)c(F)c4F)cnc23)ccc1C(=O)NC1CNC1` [Example 12, N-(azetidin-3-yl)-4-[[3-(2,3-difluoro-4-methoxy-phenyl)imidazo[1,2-a]pyrazin-8-yl]amino]-2-ethyl-benzamide], for which the IC90 in assay [1] and in assay [2] was 230 nM throughout. As for `CCc1cc(Nc2nccn3c(-c4ccc(OC)c(F)c4F)cnc23)ccc1C(=O)NC1CCNCC1` [Example 13, 4-[[3-(2,3-difluoro-4-methoxy-phenyl)imidazo[1,2-a]pyrazin-8-yl]amino]-2-ethyl-N-(4-piperidyl)benzamide], the IC90 in assay [1] was 276 nM; in assay [2], 280 nM. As for `CCc1cc(Nc2nccn3c(-c4ccc(OC)c(F)c4F)cnc23)ccc1C(=O)N[C@H]1C[C@H](N)C1` [Example 14, N-(3-aminocyclobutyl)-4-[[3-(2,3-difluoro-4-methoxy-phenyl)imidazo[1,2-a]pyrazin-8-yl]amino]-2-ethyl-benzamide], the IC90 in assay [1] stood at 248 nM; in assay [2], 250 nM.

Regarding `Cc1cc(Nc2nccn3c(-c4ccc(OC(F)F)cc4)cnc23)ccc1C(=O)N[C@H]1[C@@H](O)[C@H](O)[C@@H](CO)O[C@@H]1O` [Example 23, 4-[[3-[4-(difluoromethoxy)phenyl]imidazo[1,2-a]pyrazin-8-yl]amino]-2-methyl-N-[(2S,3S,4R,5S,6R)-2,4,5-trihydroxy-6-(hydroxymethyl)oxan-3-yl]benzamide], the IC90 in assay [2] amounted to 8000 nM.

Take `COc1ccc(-c2cnc3c(Nc4ccc(C(=O)NC5CCN(C6CCS(=O)(=O)CC6)CC5)c(C)c4)nccn23)cc1F` [Example 24, N-[1-(1,1-dioxothian-4-yl)piperidin-4-yl]-4-[[3-(3-fluoro-4-methoxyphenyl)imidazo[1,2-a]pyrazin-8-yl]amino]-2-methylbenzamide]: in assay [2], the IC90 stood at 600 nM. Same read-out and setting: as for `COc1ccc(-c2cnc3c(Nc4ccc(C(=O)Nc5ccc(C(=O)O)cc5)c(C)c4)nccn23)cc1F` [Example 25, 4-[[4-[[3-(3-fluoro-4-methoxyphenyl)imidazo[1,2-a]pyrazin-8-yl]amino]-2-methylbenzoyl]amino] benzoic acid], the figure is 1500 nM; as for `COc1ccc(-c2cnc3c(Nc4ccc(C(=O)N[C@H]5CCNC[C@H]5F)c(C)c4)nccn23)cc1F` [Example 26, 4-[[3-(3-fluoro-4-methoxyphenyl)imidazo[1,2-a]pyrazin-8-yl]amino]-N-[(3R,4S)-3-fluoropiperidin-4-yl]-2-methylbenzamide;2,2,2-trifluoroacetic acid], 2700 nM; as for `CCc1cc(Nc2nccn3c(-c4ccc(OC)c(F)c4F)cnc23)ccc1C(=O)NC1(CO)COC1` [Example 27, 4-[[3-(2,3-difluoro-4-methoxyphenyl)imidazo[1,2-a]pyrazin-8-yl]amino]-2-ethyl-N-[3-(hydroxymethyl)oxetan-3-yl]benzamide], 180 nM. On the same count and under the same terms, as for `CCc1cc(Nc2nccn3c(-c4ccc(OC)c(F)c4F)cnc23)ccc1C(=O)N[C@H]1CCNC1` [Example 28, 4-[[3-(2,3-difluoro-4-methoxyphenyl)imidazo[1,2-a]pyrazin-8-yl]amino]-2-ethyl-N-[(3S)-pyrrolidin-3-yl]benzamide;hydrochloride], the figure is 370 nM. As for `CCc1cc(Nc2nccn3c(-c4ccc(OC(F)F)c(F)c4F)cnc23)ccc1C(=O)NC1(CN)CC1` [Example 29, N-[1-(aminomethyl)cyclopropyl]-4-[[3-[4-(difluoromethoxy)-2,3-difluorophenyl]imidazo[1,2-a]pyrazin-8-yl]amino]-2-ethylbenzamide;hydrochloride], the 90% effect concentration (IC90) in assay [2] was 710 nM. Consider `CCc1cc(Nc2nccn3c(-c4ccc(OC)c(F)c4F)cnc23)ccc1C(=O)N[C@H]1CCNC1=O` [Example 30, 4-[[3-(2,3-difluoro-4-methoxyphenyl)imidazo[1,2-a]pyrazin-8-yl]amino]-2-ethyl-N-[(3 S)-2-oxopyrrolidin-3-yl]benzamide], for which it took 930 nM to reach the 90% level in assay [2] (IC90). Same read-out and setting: as for `CCc1cc(Nc2nccn3c(-c4ccc(OC)c(F)c4F)cnc23)ccc1C(=O)NC1(CN)COC1` [Example 40, N-(3-(aminomethyl)oxetan-3-yl)-4-((3-(2,3-difluoro-4-methoxyphenyl)imidazo[1,2-a]pyrazin-8-yl)amino)-2-ethylbenzamide hydrochloride], the figure is 482 nM.
